US5808139A (Ligand Pharmaceuticals Incorporated, priority 1994, dated 1998)

Experiments:
[1] = target: T1, human progesterone receptor (Homo sapiens, UniProt P06401); test: Progesterone receptor binding (displacement of 3H-progesterone, whole cell extract of transfected CV-1 cells); parameters: expressed in transfected cells; host or cells: CV-1 cells (calcium phosphate transfection), whole cell extract
T1 sequence (P06401 1-933): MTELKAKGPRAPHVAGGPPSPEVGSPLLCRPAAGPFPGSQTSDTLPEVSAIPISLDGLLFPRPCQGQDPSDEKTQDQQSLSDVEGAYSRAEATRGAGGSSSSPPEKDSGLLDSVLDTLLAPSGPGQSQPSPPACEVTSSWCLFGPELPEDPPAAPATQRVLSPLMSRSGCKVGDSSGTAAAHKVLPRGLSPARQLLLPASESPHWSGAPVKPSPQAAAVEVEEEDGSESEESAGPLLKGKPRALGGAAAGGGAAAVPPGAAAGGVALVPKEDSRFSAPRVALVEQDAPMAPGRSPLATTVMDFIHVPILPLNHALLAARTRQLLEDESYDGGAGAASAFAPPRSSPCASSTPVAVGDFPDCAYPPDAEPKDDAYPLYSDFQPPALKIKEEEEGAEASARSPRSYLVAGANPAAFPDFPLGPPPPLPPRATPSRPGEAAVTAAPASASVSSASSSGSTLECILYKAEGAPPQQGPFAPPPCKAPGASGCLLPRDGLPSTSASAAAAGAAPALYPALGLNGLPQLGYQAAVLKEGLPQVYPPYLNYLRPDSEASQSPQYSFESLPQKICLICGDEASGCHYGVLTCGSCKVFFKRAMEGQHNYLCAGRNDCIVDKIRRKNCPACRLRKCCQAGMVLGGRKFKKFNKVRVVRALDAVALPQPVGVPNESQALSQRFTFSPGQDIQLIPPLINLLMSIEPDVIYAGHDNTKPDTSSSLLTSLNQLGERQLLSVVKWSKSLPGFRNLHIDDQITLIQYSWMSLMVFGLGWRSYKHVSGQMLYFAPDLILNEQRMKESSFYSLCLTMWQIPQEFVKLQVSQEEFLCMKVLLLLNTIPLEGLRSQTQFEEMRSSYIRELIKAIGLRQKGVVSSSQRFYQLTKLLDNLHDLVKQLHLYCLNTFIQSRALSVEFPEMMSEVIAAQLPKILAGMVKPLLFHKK
Experimental: These tests were conducted according to the following illustrative example.
CO2 for 40 hours prior to harvest.
After incubation, cells were harvested and washed in phosphate buffered saline. Whole cell receptor extract was prepared by homogenizing the harvested cells in Tris-HCl buffer, pH=7.4, containing 30% glycerol, 1 mM EDTA, 12 mM monothioglycerol, 1 mM PMSF, and 0.5M potassium chloride. The homogenate was incubated at 4° C. for 60 min with resuspension every 10 min. The suspension was centrifuged (105,000×g, 60 min) and the supernatant was collected and flash frozen in liquid nitrogen and stored frozen at -70° C.
To a […] final volume incubation mixture, […] of 7.5% (w/v) dextran-coated charcoal suspension in gelatin phosphate buffer was added. The mixture was vortexed and incubated at 4° C. for 10 min and then centrifuged at 3000 rpm for 10 min. The amount of bound tritiated hormone was determined by liquid scintillation spectrophotometry of an aliquot of the supernatant. […]

[2] = test system: human progesterone receptor altered at the Tau-1 location; test: Co-transfection assay in CV-1 cells, progesterone receptor altered at Tau-1, antagonist activity; assay type: cell-based; details: for Efficacy (% maximal response relative to RU-486), CV-1 cells: antagonist activity; for IC50: concentration required to reduce the maximal response by 50%, read-out: Potency (IC50), CV-1 cells
Text: This assay is described in further detail in U.S. Pat. Nos. 4,981,784 and 5,071,773, which are incorporated herein by reference. The co-transfection assay provides a method for identifying functional ligands (either agonists which mimic, or antagonists which inhibit, the effect of hormones) for ligand-responsive receptor proteins.
The co-transfection assay provides a mechanism to evaluate ability of a compound to function as an agonist or antagonist of the activity modulated by an intracellular receptor. The co-transfection assay mimics an in vivo system in the laboratory. In the co-transfection assay, a cloned gene for an intracellular receptor is introduced by transfection (a procedure to induce cells to take up foreign genes) into a background cell substantially devoid of endogenous intracellular receptors. This introduced gene directs the recipient cells to make the intracellular receptor protein. A second gene is also introduced (co-transfected) into the same cells in conjunction with the intracellular receptor gene. This second gene functions as a reporter for the transcription-modulating activity of the target intracellular receptor. The reporter acts as a surrogate for the products normally expressed by a gene under control of the target receptor and its natural hormone.
A preferred reporter gene is one which expresses the firefly enzyme luciferase. The co-transfection assay can detect small molecule agonists or antagonists of target intracellular receptors. Exposing the cells to an agonist ligand increases reporter activity in the transfected cells that can be conveniently measured, reflecting ligand-dependent, intracellular receptor-mediated increases in reporter transcription. To detect antagonists, the co-transfection assay is carried out in the presence of a constant concentration of an agonist known to induce a defined reporter signal. Increasing concentrations of a test antagonist will decrease the reporter signal. The co-transfection assay is therefore useful to detect both agonists and antagonists of specific intracellular receptors. It determines not only whether a compound interacts with a particular intracellular receptor, but also whether this interaction mimics (agonizes) or blocks (antagonizes) the effects of the natural regulatory molecules on target gene expression.
Co-transfected cells are exposed to a medium to which is added the potential ligand that is being evaluated. If the candidate ligand diffuses into the cell and binds to the receptor and the resulting complex functions as an agonist, it binds to the co-transfected reporter gene and initiates transcription. When that gene is one that expresses, for example, luciferase, luciferase is produced which catalyzes a light-emitting reaction with its substrate luciferin. Thus, after cell lysis and the introduction of luciferin, the amount of light produced relative to the concentration of candidate ligand used in the assay provides a measure of the potency and efficacy of the compound tested. Antagonist activity is evaluated by adding the candidate ligand and a known agonist to the co-transfected cells.
The receptor cDNA was introduced in a mammalian expression vector under the control of the Rous Sarcoma virus LTR. […] A reporter vector was also transfected, containing a firefly luciferase gene under the control of the hormone-responsive promoter. […] The level of luciferase activity was then measured in cell extracts. Light emission is directly proportional to the effectiveness of the hormone-receptor complex in activating gene expression.
A total of three replicates per concentration point were tested for each compound, and the EC50 was calculated for each positive response. Both agonist and antagonist activity for each test compound was determined in parallel. […]

[3] = test system: progesterone receptor (T47D cells); test: Antagonist assay in T47D (human breast cancer) cells (Tables 1 and 2); assay type: cell-based; details: for Efficacy (% maximal response relative to RU-486), T47D cells: antagonist activity; for IC50: concentration required to reduce the maximal response by 50%, read-out: Potency (IC50), T47D cells
Text: The functional activities of the cyclocymopol analogues in the human breast cell line, T47D, were also investigated. T47D cells have proven to be a particularly useful model to investigate the molecular actions of sex steroids because they contain endogenous functional receptors for, and respond to, progestins, and their respective antagonists. […] In T47D cells, progestins induce de novo synthesis of a plasma-associated alkaline phosphatase, which has been reported to be similar, if not identical, to the alkaline phosphatase present in the normal breast and human milk. These tests were conducted according to the following illustrative example.
The assay was also run using T47D (human breast cancer) cells.

Compound | Kd [1] | Efficacy (% maximal response relative to RU-486), CV-1 cells [2] | IC50 [2] | Efficacy (% maximal response relative to RU-486), T47D cells [3] | IC50 [3]
C=C1C[C@@](C)(CO)CC(C)(C)[C@@H]1Cc1cc(OC)c(Br)cc1O (relative stereo) [HH, trans-1-Methylidene-2-(2'-hydroxy-4'-bromo-5'-methoxyphenyl)methyl-3,3,5-trimethyl-5-(hydroxymethyl)cyclohexane] | 2310 nM | 85% | 3000 nM | 81% | 1100 nM
C=C1CCCC(C)(C)C1Cc1cc(OC)c(Br)cc1OC(=O)OC (stereo in doubt) [Compound D, (3S)-1-Debromocyclocymopol monomethyl ether, methyl carbonate] | 50 nM | 45% | 450 nM | 55% | 150 nM
C=C1C[C@H](CCC2OCCO2)CC(C)(C)[C@@H]1Cc1cc(OC)c(Br)cc1O (relative stereo) [W, cis-1-Methylidene-2-(2'-hydroxy-4'-bromo-5'-methoxyphenyl)methyl-3,3-dimethyl-5-(propanal-1,3-dioxolane)cyclohexane] | 362 nM | 85% | 2900 nM | 85% | 380 nM
O=C1CCCCC1Cc1ccc([N+](=O)[O-])cc1 (stereo not shown) [F, 2-(4'-Nitrophenyl)methylcyclohexan-1-one] | 925 nM | 100% | 550 nM | 80% | 200 nM
C=C1C=CCC(C)(C)C1Cc1ccc([N+](=O)[O-])c(C)c1 (stereo not shown) [M, 1-Methylidene-6-(3'-methyl-4'-nitrophenyl)methyl-5,5-dimethylcyclohex-2-ene] | 75 nM | 90% | 875 nM | 80% | 350 nM
C=C1CCCCC1Cc1cc(OC)c(Br)cc1O (stereo not shown) [Compound S, 1-Methylidene-2-(2'-hydroxy-4'-bromo-5'-methoxyphenyl)methylcyclohexane] | 345 nM | 90% | 1500 nM | 85% | 400 nM
C=C1C=C[C@@H](C)C(C)(C)[C@@H]1Cc1cc(OC)c(Br)cc1OC(C)=O (relative stereo) [N, trans-1-Methylidene-6-(2'-acetoxy-4'-bromo-5'-methoxyphenyl)methyl-4,5,5-trimethylcyclohex-2-ene] | 195 nM | 90% | 1000 nM | 70% | 325 nM
C=C1CC[C@@H](Br)C(C)(C)[C@@H]1Cc1cc(OC)c(Br)cc1OC(=O)OC [T, (3R)-Cyclocymopol monomethyl ether, methyl carbonate] | 185 nM | 90% | 1580 nM | 90% | 300 nM
C=C1CC[C@@H](Br)C(C)(C)[C@@H]1Cc1cc(OC)c(I)cc1O [V, (3R)-4'-Iodocyclocymopol monomethyl ether] | 95 nM | 95% | 1800 nM | 85% | 325 nM
C=C1CCCC(C)(C)C1Cc1cc(OC)c(Br)cc1OC(=O)OC (stereo in doubt) [R, (3R)-1-Debromocyclocymopol monomethyl ether, methyl carbonate] | 230 nM | 95% | 1220 nM | 85% | 250 nM
C=C1CCCC(C)(C)C1Cc1cc(OC)c(Br)cc1OC(C)=O (racemic) [A, 1-Methylidene-2-(2'-acetoxy-4'-bromo-5'-methoxyphenyl)methyl-3,3-dimethylcyclohexane] | 100 nM | 55% | 225 nM | 70% | 200 nM
C=C1C=C(C)[C@@H](CCO)C(C)(C)[C@@H]1Cc1cc(OC)c(Br)cc1O (relative stereo) [JJ, trans-1-Methylidene-4-(2-hydroxy)ethyl-6-(2'-hydroxy-4'-bromo-5'-methoxyphenyl)methyl-3,5,5-trimethylcyclohex-2-ene] | 625 nM | 48% | 30 nM | 74% | 3600 nM
CC1(C)CC=CC(=O)C1Cc1ccc([N+](=O)[O-])cc1 (stereo not shown) [MM, 6-(4'-Nitrophenyl)methyl-5.5-dimethylcyclohex-2-en-1-one] | 10000 nM | 74% | 1770 nM | 90% | 390 nM
COc1cc(CC2C(C)(C)CC(C)=CC23CC3)c(OC(C)=O)cc1Br (stereo not shown) [DD, 8-(2'-Acetoxy-4'-bromo-5'-methoxyphenyl)methyl-5,7,7-trimethylspiro[2.5]oct-4-ene] | 104 nM | 26% | 160 nM | 68% | 440 nM
